Results from patent publication US20250154169A1, “COMPOUNDS AND METHODS FOR MODULATING SPLICING” (REMIX THERAPEUTICS INC., priority 2021, published 2025).

Columns and labels:
[1] = test system: HTT mRNA; assay: Splicing RT-qPCR assay, HTT canonical (CJ) and alternative (AJ) junction mRNA; assay type: cell-based, human; conditions: Homo sapiens, A673 or K562 cells, 24 hours compound treatment; for IC50: 24 h, read-out: HTT CJ (IC50, decrease in canonical junction mRNA); for AC50: read-out: HTT AJ (AC50, increase in alternative junction mRNA)
Description: (§1) Compounds described herein were used to modulate RNA transcript abundance in cells. The expression of a target mRNA was measured by detecting the formation of an exon-exon junction in the canonical transcript (CJ). A compound mediated exon-inclusion event was detected by observing an increase in formation of a new junction with an alternative exon (AJ). Real-time qPCR assays were used to detect these splicing switches and interrogate the potency of various compounds towards different target genes. A high-throughput real time quantitative PCR (RT-qPCR) assay was developed to measure these two isoforms of the mRNA (CJ and AJ) for exemplary genes, such as HTT, SMN2, and MYB, together with a control housekeeping gene, GAPDH or GUSB or PPIA, used for normalization. Briefly, the A673 or K562 cell line was treated with various compounds described herein (e.g., compounds of Formula (I)). After treatment, the levels of the HTT, MYB, or SMN2 mRNA targets were determined from each sample of cell lysate by cDNA synthesis followed by qPCR.
(§2) • Cells-to-CT 1-step kit: ThermoFisher A25602, Cells-to-CT lysis reagent: ThermoFisher 4391851C, TaqMan™ Fast Virus 1-Step Master Mix: ThermoFisher 4444436 • GAPDH: VIC-PL, ThermoFisher 4326317E (Assay: Hs99999905_m1)—used for K562/suspension cell lines • GUSB: VIC-PL, ThermoFisher 4326320E (Assay: Hs99999908_m1)—used for K562/suspension cell lines • PPIA: VIC-PL, ThermoFisher 4326316E (Assay: Hs99999904_m1)—used for A673/adherent cell lines
(§3) The A673 cell line was cultured in DMEM with 10% FBS. Cells were diluted with full growth media and plated in a 96-well plate (15,000 cells in 100 ul media per well). The plate was incubated at 37° C. with 5% CO2 for 24 hours to allow cells to adhere. An 11-point 3-fold serial dilution of the compounds was made in DMSO then diluted in media in an intermediate plate. Compounds were transferred from the intermediate plate to the cell plate with the top dose at a final concentration of 10 uM in the well. Final DMSO concentration was kept at or below 0.25%. The cell plate was returned to the incubator at 37° C. with 5% CO2 for an additional 24 hours.
(§4) The K562 cell line was cultured in IMDM with 10% FBS. For K562, cells were diluted with full growth media and plated in either a 96-well plate (50,000 cells in 50 uL media per well) or a 384-well plate (8,000-40,000 cells in 45 uL media per well). An 11-point 3-fold serial dilution of the compounds were made in DMSO then diluted in media in an intermediate plate. Compound was transferred from the intermediate plate to the cell plate with the top dose at a final concentration of 10 uM in the well. Final DMSO concentration was kept at or below 0.25%. Final volume was 100 uL for 96-well plate and 50 uL for 384-well plate. The cell plate was then placed in an incubator at 37° C. with 5% CO2 for 24 hours.
(§5) The cells were then gently washed with 50 uL-100 uL cold PBS before proceeding to addition of lysis buffer. 30 uL-50 uL of room temperature lysis buffer with DNAse I (and optionally RNAsin) was added to each well. Cells were shaken/mixed thoroughly at room temperature for 5-10 minutes for lysis to take place and then 3 uL-5 uL of room temperature stop solution was added and wells were shaken/mixed again. After 2-5 minutes, the cell lysate plate was transferred to ice for RT-qPCR reaction setup. The lysates could also be frozen at −80° C. for later use.
(§6) In some cases, a direct lysis buffer was used. An appropriate volume of 3× lysis buffer (10 mM Tris, 150 mM NaCl, 1.5%-2.5% Igepal and 0.1-1 U/uL RNAsin, pH 7.4) was directly added to either K562 or A673 cells in media and mixed by pipetting 3 times. The plates were then incubated at room temperature with shaking/rocking for 20-50 minutes to allow for lysis to take place. After this time, the cell lysate plate was transferred to ice to set up for the RT-qPCR reactions. The lysates could also be frozen at −80° C. for later use. […]

[2] = test system: MYB mRNA; assay: Splicing RT-qPCR assay, MYB canonical (CJ) and alternative (AJ) junction mRNA; assay type: cell-based, human; conditions: Homo sapiens, 24 h, A673 or K562 cells, 24 hours compound treatment, RT-qPCR; for AC50: read-out: MYB AJ (AC50, increase in alternative junction mRNA); for IC50: read-out: MYB CJ (IC50, decrease in canonical junction mRNA)
Description: as §1, §2, §3, §4, §5, §6

Compound | IC50 [1] [µM] | IC50 [2] [µM] | AC50 [1] [µM] | AC50 [2] [µM]
CCn1cc2c(C3=CCNCC3)ccc(C(=O)Nc3cc(F)c4nc(C)cn4c3)c2n1 [Compound 506, 2-ethyl-N-{8-fluoro-2-methylimidazo[1,2-a]pyridin-6-yl}-4-(1,2,3,6-tetrahydropyridin-4-yl) indazole-7-carboxamide] | 0.1 to 1 | 0.1 to 1 | 1 to 10 | 0.1 to 1
Cc1cn2cc(NC(=O)c3cc(Cl)c(N4CCNCC4)c4cn(C)nc34)cc(F)c2n1 [Compound 528, 5-chloro-N-{8-fluoro-2-methylimidazo[1,2-a]pyridin-6-yl}-2-methyl-4-(piperazin-1-yl) indazole-7-carboxamide] | > 10 | 0.1 to 1 | > 10 | 0.1 to 1
CNc1nc(NC(=O)c2ccc(N3CC[C@@H](NC)C3)c3cn(C)nc23)cn2cc(C)nc12 [Compound 631, 2-methyl-N-[2-methyl-8-(methylamino)imidazo[1,2-a]pyrazin-6-yl]-4-[(3R)-3-(methylamino)pyrrolidin-1-yl]indazole-7-carboxamide] | > 10 | 1 to 10 | > 10 | 1 to 10
CCn1cc2c(N3CCC(NC4(CO)CC4)CC3)ccc(C(=O)Nc3cc(F)c4nc(C)cn4c3)c2n1 [Compound 590] | 1 to 10 | 0.1 to 1 | 1 to 10 | 0.1 to 1
CCn1cc2c(N3CCN4CCOC[C@H]4C3)ccc(C(=O)Nc3cc(F)c4nc(C)cn4c3)c2n1 [Compound 537, 4-[(9aR)-hexahydro-1H-pyrazino[2,1-c][1,4]oxazin-8-yl]-2-ethyl-N-{8-fluoro-2-methylimidazo[1,2-a]pyridin-6-yl}indazole-7-carboxamide] | > 10 | 1 to 10 | > 10 | 1 to 10
CCn1cc2c(N3C[C@H](F)[C@H](NC)C3)ccc(C(=O)Nc3cc(F)c4nc(C)cn4c3)c2n1 [Compound 585, cis-2-ethyl-N-(8-fluoro-2-methylimidazo[1,2-a]pyridin-6-yl)-4-((3S,4R)-3-fluoro-4-(methylamino)pyrrolidin-1-yl)-2H-indazole-7-carboxamide bis(2,2,2-trifluoroacetate)] | > 10 | 0.1 to 1 | > 10 | 0.1 to 1
Cc1cn2cc(NC(=O)c3ccc(N4CC[C@@H](NC5(CO)CC5)C4)c4cn(C)nc34)cc(F)c2n1 [Compound 643] | > 10 | 0.1 to 1 | > 10 | 0.1 to 1
Cc1cn2cc(NC(=O)c3ccc(N4CCOCC4)c4cn(C)nc34)cc(F)c2n1 [Compound 486, N-{8-fluoro-2-methylimidazo[1,2-a]pyridin-6-yl}-2-methyl-4-(morpholin-4-yl) indazole-7-carboxamide] | 0.1 to 1 | 0.1 to 1 | 0.1 to 1 | 0.1 to 1
CCn1cc2c(N3CC4(CCCN4)C3)ccc(C(=O)Nc3cc(F)c4nc(C)cn4c3)c2n1 [Compound 482, 4-{2,5-diazaspiro[3.4]octan-2-yl}-2-ethyl-N-{8-fluoro-2-methylimidazo[1,2-a]pyridin-6-yl}indazole-7-carboxamide] | > 10 | 1 to 10 | > 10 | 1 to 10
C=CCn1cc2c(N3CCNCC3)ccc(C(=O)Nc3cc(F)c4nc(C)cn4c3)c2n1 [Compound 392, N-{8-fluoro-2-methylimidazo[1,2-a]pyridin-6-yl}-4-(piperazin-1-yl)-2-(prop-2-en-1-yl) indazole-7-carboxamide] | 1 to 10 | < 0.1 | 1 to 10 | < 0.1

Now from value to molecule, other results behind:

IC50 [1] [µM] | IC50 [2] [µM] | Compound | AC50 [1] [µM] | AC50 [2] [µM]
1 to 10 | 0.1 to 1 | Cc1cn2cc(NC(=O)c3ccc(N4CCNCC4)c4cn(C)nc34)ccc2n1 [Compound 518, 2-methyl-N-{2-methylimidazo[1,2-a]pyridin-6-yl}-4-(piperazin-1-yl) indazole-7-carboxamide] | 1 to 10 | < 0.1
> 10 | > 10 | CN[C@@H]1CCN(c2ccc(C(=O)Nc3cn4cc(C)nc4c(N4CCOCC4)n3)c3nn(C)cc23)C1 [Compound 612, 2-methyl-N-[2-methyl-8-(morpholin-4-yl)imidazo[1,2-a]pyrazin-6-yl]-4-[(3R)-3-(methylamino)pyrrolidin-1-yl]indazole-7-carboxamide] | > 10 | > 10
> 10 | 0.1 to 1 | Cc1cn2cc(NC(=O)c3ccc(N4CC[C@@H](NCC5(O)CC5)C4)c4cn(C)nc34)cc(F)c2n1 [Compound 639] | > 10 | 0.1 to 1
1 to 10 | 1 to 10 | Cc1cn2cc(NC(=O)c3ccc(N4CCCC4)c4cn(C)nc34)cc(F)c2n1 [Compound 487, N-{8-fluoro-2-methylimidazo[1,2-a]pyridin-6-yl}-2-methyl-4-(pyrrolidin-1-yl) indazole-7-carboxamide] | 1 to 10 | 1 to 10
1 to 10 | 0.1 to 1 | CCn1cc2c(N3C[C@@H](F)[C@H](NC)C3)ccc(C(=O)Nc3cc(F)c4nc(C)cn4c3)c2n1 [Compound 584, 2-ethyl-N-{8-fluoro-2-methylimidazo[1,2-a]pyridin-6-yl}-4-[(3R,4R)-3-fluoro-4-(methylamino)pyrrolidin-1-yl]indazole-7-carboxamide] | 1 to 10 | 0.1 to 1
0.1 to 1 | 0.1 to 1 | Cc1cn2cc(NC(=O)c3c(F)cc(N4CC[C@@H](NC5(C#N)CC5)C4)c4cn(C)nc34)cc(F)c2n1 [Compound 587, 4-[(3R)-3-[(1-cyanocyclopropyl)amino]pyrrolidin-1-yl]-6-fluoro-N-{8-fluoro-2-methylimidazo[1,2-a]pyridin-6-yl}-2-methylindazole-7-carboxamide] | 0.1 to 1 | 0.1 to 1
1 to 10 | 0.1 to 1 | Cc1cn2cc(NC(=O)c3ccc(N4CCC(N)(CF)CC4)c4cn(C)nc34)cc(F)c2n1 [Compound 397] | 1 to 10 | 0.1 to 1
< 0.1 | < 0.1 | COc1nc(NC(=O)c2ccc(N3CCNCC3)c3cn(C)nc23)cc2oc(C)nc12 [Compound 529, N-{4-methoxy-2-methyl-[1,3]oxazolo[4,5-c]pyridin-6-yl}-2-methyl-4-(piperazin-1-yl) indazole-7-carboxamide] | 0.1 to 1 | < 0.1
1 to 10 | < 0.1 | CCn1cc2c(N3CC[C@H](NC)C3)cc(F)c(C(=O)Nc3cc(F)c4nc(C)cn4c3)c2n1 [Compound 478, 2-ethyl-6-fluoro-N-{8-fluoro-2-methylimidazo[1,2-a]pyridin-6-yl}-4-[(3S)-3-(methylamino)pyrrolidin-1-yl]indazole-7-carboxamide; bis(trifluoroacetic acid)] | > 10 | 0.1 to 1
